For 43 molecules, melting point results are on record in patent US6583154B1, “Compounds and methods which modulate feeding behavior and related diseases” (Amgen Inc., priority 1998, dated 2003).

Structures can show the parent of a compound that is named as a salt.

On to `Cc1nc(N2CCCCC2)c2[nH]c(-c3ccc(S(C)(=O)=O)cc3)cc2n1.Cl` (hydrate or solvate) [Example 142, 1-[2-Methyl-4-piperidylpyrrolo[4,5-d]pyrimidin-6-yl]-4-(methylsulfonyl)benzene Hydrochloride Monohydrate], for which the melting point – broadly, the temperature, or range, at which the solid turns liquid – was 279 to 281 °C.
Molecule `Cl.c1ccc(-c2[nH]c3c(N4CCCCC4)ncnc3c2-c2ccccc2)cc1` (hydrate or solvate) yielded a melting point of 266 to 268.5 °C.
The molecule `c1ccc(-c2cc3nc(N4CCCC4)nc(N4CCCCC4)c3[nH]2)cc1` (as salt: hydrochloride) (hydrate or solvate) came in with a melting point above 272 °C.
In turn, `COc1cccc2cc(-c3cc4nc(C)nc(N5CCCCC5)c4[nH]3)oc12.Cl` (hydrate or solvate) came in with a melting point above 280 °C.
Turning to `Cc1nc(N2CCCCC2)c2[nH]c(-c3ccc(F)c(F)c3)c(C)c2n1.Cl`, the melting point was above 280 °C.
With `Cc1nc(N2CCCCC2)c2[nH]c(-c3ccccc3)c(C)c2n1.Cl` (hydrate or solvate) [Example 90, 2,7-Dimethyl-6-phenyl-4-piperidylpyrrolo[3,2-d]pyrimidine Hydrochloride Monohydrate], the melting point is above 280 °C.
In the case of `CCCCc1cc2nc(C)cc(N3CCCCC3)c2o1.Cl`, the melting point was in the range of 172 to 173 °C.
The molecule `Cc1nc(N2CCCCC2)c2[nH]c(-c3ccc(SC(F)(F)F)cc3)cc2n1.Cl` (hydrate or solvate) [Example 123, Trifluoro[4-(2-methyl-4-piperidylpyrrolo[4,5-d]pyrimidin-6-yl)phenylthio]methane Hydrochloride Monohydrate] had a melting point of 270 to 272 °C.
The molecule `Cc1nc(N2CCCCC2)c2[nH]c(-c3ccc4c(c3)CCO4)cc2n1.Cl` (hydrate or solvate) [Example 131, 5-[2-Methyl-4-piperidylpyrrolo[4,5-d]pyrimidin-6-yl]-2,3-dihydrobenzo[b]furan Hydrochloride Hydrate] gave a melting point of 170 to 172 °C.
In turn, `Cc1nc(N2CCNCC2)c2[nH]c(-c3ccccc3)cc2n1` [Example 26, 2-methyl-6-phenyl-4-piperazinylpyrrolo[3,2-d]pyrimidine] yielded a melting point of 236 °C.
With `Cc1nc(N2CCCCC2)c2[nH]c(-c3sc4ccccc4c3C)cc2n1.Cl` (hydrate or solvate), the melting point was above 280 °C.
`Cc1nc(N2CCC2)c2[nH]c(-c3ccccc3)cc2n1.Cl` (hydrate or solvate): the melting point was > 300 °C (dec.).
Take `Cc1nc(N2CCCCC2)c2[nH]c(-c3cccnc3)cc2n1.Cl` (hydrate or solvate): the melting point was above 280 °C.
Regarding `Cl.c1ccc(-c2cc3ncnc(N4CCCCC4)c3[nH]2)nc1` (hydrate or solvate), the melting point is 279 to 280 °C.
In the case of `Cc1nc(N2CCCCC2)c2[nH]c(-c3ccccc3)c(Br)c2n1` (as salt: hydrochloride) [Example 211, 7-Bromo-2-methyl-6-phenyl-4-piperidylpyrrolo[3,2-d]pyrimidine Hydrochloride], the melting point fell in the range of 239 to 240 °C.
As to `Cc1nc(N2CCCCC2)c2[nH]c(-c3cccc(Cl)c3)cc2n1.Cl` (hydrate or solvate) [Example 70e, 6-(3-Chlorophenyl)-2-methyl-4-piperidylpyrrolo[3,2-d]pyrimidine Hydrochloride Monohydrate], the melting point is 244.5 to 246 °C (dec.).
Turning to `Cc1nc(N2CCCCC2)c2[nH]c(-c3cccc(N)c3)cc2n1` (as salt: hydrochloride) (hydrate or solvate) [Example 187, 3-(2-Methyl-4-piperidylpyrrolo[4,5-d]pyrimidin-6-yl)phenylamine Hydrochloride Monohydrate], the melting point was above 275 °C.
Regarding `COc1ccc(-c2cc3nc(C)nc(N4CCCCC4)c3[nH]2)cc1.Cl` (hydrate or solvate) [Example 71e, 4-Methoxy-1-(2-methyl-4-piperidylpyrrolo[4,5-d]pyrimidin-6-yl)benzene Hydrochloride Monohydrate], the melting point is 267.5 to 268 °C (dec.).
Then `Cc1nc(N2CC=CC2)c2[nH]c(-c3cccc(Cl)c3)cc2n1` (as salt: hydrochloride) (hydrate or solvate) [Example 198, 6-(3-Chlorophenyl)-2-methyl-4-(3-pyrrolinyl)pyrrolo[3,2-d]pyrimidine Hydrochloride Hydrate], with 287.5 to 293 °C; and `Cc1nc(N2CCCCC2)c2[nH]c(-c3cc4ccccc4o3)cc2n1.Cl` (hydrate or solvate) [Example 85, 2-(2-Methyl-4-piperidylpyrrolo[4,5-d]pyrimidin-6-yl)benzo[b]furan Hydrochloride Monohydrate], with above 280 °C; and `Cc1nc(N2CCCCC2)c2[nH]c(-c3ccc(C)c(C)c3)cc2n1.Cl` (hydrate or solvate) [Example 124, 6-(3,4-Dimethylphenyl)-2-methyl-4-piperidylpyrrolo[3,2-d]pyrimidine Hydrochloride Hydrate], with 198 to 201 °C.
The molecule `Cc1nc(N2CCCCC2)c2[nH]c(-c3cc(F)c(F)c(F)c3)cc2n1.Cl` (hydrate or solvate) [Example 116, 2-Methyl-4-piperidyl-6-(3,4,5-trifluorophenyl)pyrrolo[3,2-d]pyrimidine Hydrochloride Hydrate] registered a melting point above 280 °C.
With `Cc1nc(N2CCCCC2)c2[nH]c(-c3ccc4c(c3)OCO4)cc2n1.Cl` (hydrate or solvate) [Example 114, 5-[2-Methyl-4-piperidylpyrrolo[4,5-d]pyrimidin-6-yl]-2H-benzo[d]1,3-dioxolane Hydrochloride Monohydrate], the melting point was above 280 °C.
Turning to `Cc1nc(N2CCCCC2)c2[nH]c(-c3ccccc3)cc2[n+]1[O-]` [Example 184, 2-Methyl-6-phenyl-4-piperidylpyrrolo[3,2-d]pyrimidin-1-ol], the melting point fell in the range of 169 to 170 °C.
Turning to `Cc1nc(N2C(C)C=CC2C)c2[nH]c(-c3ccccc3)cc2n1` (stereo not shown) (as salt: hydrochloride) (hydrate or solvate) [Example 220, 4-(2,5-Dimethyl(3-pyrrolinyl)-2-methyl-6-phenylpyrrolo[3,2-d]pyrimidine Hydrochloride Hydrate], the melting point lay in the range of 242 to 243 °C.
As to `Cc1nc(N2CCCCC2)c2[nH]c(-c3ccc4ccccc4c3)cc2n1.Cl` (hydrate or solvate) [Example 160, 2-Methyl-6-(2-naphthyl)-4-piperidylpyrrolo[3,2-d]pyrimidine Hydrochloride Hydrate], the melting point is above 280 °C.
In turn, `Cc1nc(N2CCCCC2)c2[nH]c(-c3ccc4c(c3)OCO4)c(C)c2n1.Cl` (hydrate or solvate) returned a melting point of 268 to 269 °C.
`Cc1nc(N2CCCCC2)c2[nH]c(-c3ccc(-c4ccccc4)cc3)cc2n1.Cl` (hydrate or solvate) showed a melting point above 280 °C.
The result for `Cc1nc(N2CCCCC2)c2[nH]c(-c3ccc(C(F)(F)F)cc3)c(C)c2n1.Cl` reads above 280 °C; that for `CCc1c(-c2ccccc2)[nH]c2c(N3CCCCC3)nc(C)nc12.Cl` (hydrate or solvate), 261 to 263 °C; that for `Cc1nc(N2CCCCC2)c2[nH]c(C(C)(C)C)cc2n1.Cl` (hydrate or solvate) [Example 97, 6-(tert-Butyl)-2-methyl-4-piperidylpyrrolo[3,2-d]pyrimidine Hydrochloride Hydrate], 256 to 258 °C.
As to `CC(C)Cc1nc(N2CCCCC2)c2[nH]c(-c3ccccc3)cc2n1` (as salt: hydrochloride) (hydrate or solvate), the melting point was 226 to 229.5 °C.
Take `Cc1nc(NCc2ccc(C)o2)c2[nH]c(-c3ccccc3)cc2n1` [Example 17]: the melting point was 125 to 127.5 °C.
As for `Cc1nc(N2CCCCC2)c2[nH]c(C3CCCCC3)cc2n1.Cl` (hydrate or solvate) [Example 80d, 6-Cyclohexyl-2-methyl-4-piperidylpyrrolo[3,2-d]pyrimidine Hydrochloride Hydrate], the melting point is above 280 °C.
Then `Cc1nc(N2[C@H](C)CCC[C@@H]2C)c2[nH]c(-c3ccc(F)cc3)cc2n1` (as salt: hydrochloride) (hydrate or solvate), with above 275 °C; and `Cc1nc(N2CCCCC2)c2[nH]c(-c3ccccc3)cc2n1` (as salt: hydrochloride) [Example 35, 2-methyl-6-phenyl-4-(piperidinyl)pyrrolo[3,2-d]pyrimidine], with 293 to 294 °C; and `CCC1CCCCN1c1nc(C)nc2cc(-c3ccccc3)[nH]c12` (stereo not shown) (as salt: hydrochloride) (hydrate or solvate) [Example 64, 2-Methyl-6-phenyl-4-(2-ethylpiperidinyl)pyrrolo[3,2-d]pyrimidine Hydrochloride Hydrate], with 228 to 229 °C.
`Cc1nc(N2CCCCC2)c2[nH]c(-c3ccccc3)c(-c3ccccc3)c2n1.Cl` (hydrate or solvate) had a melting point of 169 to 171 °C.
Then `Cc1nc(N2CCCCC2)c2[nH]c(-c3ccc4c(c3)CCCC4)cc2n1.Cl` (hydrate or solvate), with 175 to 177 °C; and `COc1ccc(-c2cc3nc(C)nc(N4CCCCC4)c3[nH]2)cc1F.Cl` (hydrate or solvate) [Example 119, 2-Fluoro-1-methoxy-4-[2-methyl-4-piperidylpyrrolo[4,5-d]pyrimidin-6-yl]benzene Hydrochloride Hydrate], with 262 to 264 °C.
Then `Cl.c1ccc2oc(-c3cc4ncnc(N5CCCCC5)c4[nH]3)cc2c1` (hydrate or solvate), with 278.5 to 281 °C.
The result for `Cc1nc(N2CCOCC2)c2[nH]c(-c3ccc(F)c(F)c3)cc2n1` (as salt: hydrochloride) [Example 141, 4-[6-(3,4-Difluorophenyl)-2-methylpyrrolo[2,3-e]pyrimidin-4-yl]morpholine Hydrochloride] reads above 280 °C; that for `Cc1nc(N2CCCCC2)c2[nH]c(-c3ccc(Cl)c(Cl)c3)cc2n1.Cl` (hydrate or solvate) [Example 118, 6-(3,4-Dichlorophenyl)-2-methyl-4-piperidylpyrrolo[3,2-d]pyrimidine Hydrochloride Monohydrate], 265 to 268 °C.
